Data: patent US20070191291A1, “Compound antibacterial drugs comprising n-acetyl-d-glucosamine” (priority 2003, published 2007)

Tested on: E. coli
Experiment: Test Example 1: inducing E. coli CGC with N-acetyl-D-glucosamine and antibiotics in different ratios (K-B method, microscopy)
Format: cell-based

CC(=O)N[C@@H]1[C@@H](O)[C@H](O)[C@@H](CO)O[C@H]1O [Compound (I), N-acetyl-D-glucosamine] was tested, and the CGC formation (Compound (I) 150 mg, macrolide (spiramycin) 500 mg) was “− (if cell length was not greater than 50 μm and cell number was within the range from 0 to 4 in each visual field, it was deemed as CGC negative and was marked with “−”)”, the CGC formation (Compound (I) 150 mg, macrolide (spiramycin) 700 mg) was “− (if cell length was not greater than 50 μm and cell number was within the range from 0 to 4 in each visual field, it was deemed as CGC negative and was marked with “−”)” and the CGC formation (Compound (I) 150 mg, macrolide (spiramycin) 900 mg) was “− (if cell length was not greater than 50 μm and cell number was within the range from 0 to 4 in each visual field, it was deemed as CGC negative and was marked with “−”)”. The CGC formation (Compound (I) 150 mg, macrolide (spiramycin) 1100 mg) was “+ (If cell length was more than 50 μm and cell number was more than 5 in each visual field, it was deemed as CGC positive and was marked with “+”)”, the CGC formation (Compound (I) 150 mg, macrolide (spiramycin) 1300 mg) was “+ (If cell length was more than 50 μm and cell number was more than 5 in each visual field, it was deemed as CGC positive and was marked with “+”)” and the CGC formation (Compound (I) 150 mg, macrolide (spiramycin) 1500 mg) was “+ (If cell length was more than 50 μm and cell number was more than 5 in each visual field, it was deemed as CGC positive and was marked with “+”)”. For the same compound, the CGC formation (Compound (I) 150 mg, quinoline (ciprofloxacin, norfloxacin) 150 mg) was “− (if cell length was not greater than 50 μm and cell number was within the range from 0 to 4 in each visual field, it was deemed as CGC negative and was marked with “−”)”, the CGC formation (Compound (I) 150 mg, quinoline (ciprofloxacin, norfloxacin) 200 mg) was “− (if cell length was not greater than 50 μm and cell number was within the range from 0 to 4 in each visual field, it was deemed as CGC negative and was marked with “−”)” and the CGC formation (Compound (I) 200 mg, aminoglycoside (kanamycin, gentamycin) 50 mg) was “− (if cell length was not greater than 50 μm and cell number was within the range from 0 to 4 in each visual field, it was deemed as CGC negative and was marked with “−”)”. The CGC formation (Compound (I) 200 mg, aminoglycoside (kanamycin, gentamycin) 100 mg) was “− (if cell length was not greater than 50 μm and cell number was within the range from 0 to 4 in each visual field, it was deemed as CGC negative and was marked with “−”)”, the CGC formation (Compound (I) 200 mg, aminoglycoside (kanamycin, gentamycin) 150 mg) was “− (if cell length was not greater than 50 μm and cell number was within the range from 0 to 4 in each visual field, it was deemed as CGC negative and was marked with “−”)” and the CGC formation (Compound (I) 200 mg, aminoglycoside (kanamycin, gentamycin) 200 mg) was “− (if cell length was not greater than 50 μm and cell number was within the range from 0 to 4 in each visual field, it was deemed as CGC negative and was marked with “−”)”. For the same compound, the CGC formation (Compound (I) 200 mg, aminoglycoside (kanamycin, gentamycin) 300 mg) was “− (if cell length was not greater than 50 μm and cell number was within the range from 0 to 4 in each visual field, it was deemed as CGC negative and was marked with “−”)”, the CGC formation (Compound (I) 200 mg, aminoglycoside (kanamycin, gentamycin) 400 mg) was “+ (If cell length was more than 50 μm and cell number was more than 5 in each visual field, it was deemed as CGC positive and was marked with “+”)” and the CGC formation (Compound (I) 200 mg, aminoglycoside (kanamycin, gentamycin) 500 mg) was “+ (If cell length was more than 50 μm and cell number was more than 5 in each visual field, it was deemed as CGC positive and was marked with “+”)”. The CGC formation (Compound (I) 200 mg, macrolide (spiramycin) 300 mg) was “− (if cell length was not greater than 50 μm and cell number was within the range from 0 to 4 in each visual field, it was deemed as CGC negative and was marked with “−”)”, the CGC formation (Compound (I) 200 mg, macrolide (spiramycin) 500 mg) was “− (if cell length was not greater than 50 μm and cell number was within the range from 0 to 4 in each visual field, it was deemed as CGC negative and was marked with “−”)” and the CGC formation (Compound (I) 200 mg, macrolide (spiramycin) 700 mg) was “− (if cell length was not greater than 50 μm and cell number was within the range from 0 to 4 in each visual field, it was deemed as CGC negative and was marked with “−”)”. The CGC formation (Compound (I) 200 mg, macrolide (spiramycin) 900 mg) was “− (if cell length was not greater than 50 μm and cell number was within the range from 0 to 4 in each visual field, it was deemed as CGC negative and was marked with “−”)”, the CGC formation (Compound (I) 200 mg, macrolide (spiramycin) 1100 mg) was “− (if cell length was not greater than 50 μm and cell number was within the range from 0 to 4 in each visual field, it was deemed as CGC negative and was marked with “−”)” and the CGC formation (Compound (I) 200 mg, macrolide (spiramycin) 1300 mg) was “+ (If cell length was more than 50 μm and cell number was more than 5 in each visual field, it was deemed as CGC positive and was marked with “+”)”. For the same compound, the CGC formation (Compound (I) 200 mg, macrolide (spiramycin) 1500 mg) was “+ (If cell length was more than 50 μm and cell number was more than 5 in each visual field, it was deemed as CGC positive and was marked with “+”)”, the CGC formation (Compound (I) 250 mg, aminoglycoside (kanamycin, gentamycin) 50 mg) was “− (if cell length was not greater than 50 μm and cell number was within the range from 0 to 4 in each visual field, it was deemed as CGC negative and was marked with “−”)” and the CGC formation (Compound (I) 250 mg, aminoglycoside (kanamycin, gentamycin) 100 mg) was “− (if cell length was not greater than 50 μm and cell number was within the range from 0 to 4 in each visual field, it was deemed as CGC negative and was marked with “−”)”. The CGC formation (Compound (I) 250 mg, aminoglycoside (kanamycin, gentamycin) 150 mg) was “− (if cell length was not greater than 50 μm and cell number was within the range from 0 to 4 in each visual field, it was deemed as CGC negative and was marked with “−”)”, the CGC formation (Compound (I) 250 mg, aminoglycoside (kanamycin, gentamycin) 200 mg) was “− (if cell length was not greater than 50 μm and cell number was within the range from 0 to 4 in each visual field, it was deemed as CGC negative and was marked with “−”)” and the CGC formation (Compound (I) 250 mg, aminoglycoside (kanamycin, gentamycin) 300 mg) was “− (if cell length was not greater than 50 μm and cell number was within the range from 0 to 4 in each visual field, it was deemed as CGC negative and was marked with “−”)”. The CGC formation (Compound (I) 250 mg, aminoglycoside (kanamycin, gentamycin) 400 mg) was “− (if cell length was not greater than 50 μm and cell number was within the range from 0 to 4 in each visual field, it was deemed as CGC negative and was marked with “−”)”, the CGC formation (Compound (I) 250 mg, aminoglycoside (kanamycin, gentamycin) 500 mg) was “+ (If cell length was more than 50 μm and cell number was more than 5 in each visual field, it was deemed as CGC positive and was marked with “+”)” and the CGC formation (Compound (I) 250 mg, macrolide (spiramycin) 300 mg) was “− (if cell length was not greater than 50 μm and cell number was within the range from 0 to 4 in each visual field, it was deemed as CGC negative and was marked with “−”)”. For the same compound, the CGC formation (Compound (I) 250 mg, macrolide (spiramycin) 500 mg) was “− (if cell length was not greater than 50 μm and cell number was within the range from 0 to 4 in each visual field, it was deemed as CGC negative and was marked with “−”)”, the CGC formation (Compound (I) 250 mg, macrolide (spiramycin) 700 mg) was “− (if cell length was not greater than 50 μm and cell number was within the range from 0 to 4 in each visual field, it was deemed as CGC negative and was marked with “−”)” and the CGC formation (Compound (I) 250 mg, macrolide (spiramycin) 900 mg) was “− (if cell length was not greater than 50 μm and cell number was within the range from 0 to 4 in each visual field, it was deemed as CGC negative and was marked with “−”)”. The CGC formation (Compound (I) 250 mg, macrolide (spiramycin) 1100 mg) was “− (if cell length was not greater than 50 μm and cell number was within the range from 0 to 4 in each visual field, it was deemed as CGC negative and was marked with “−”)”, the CGC formation (Compound (I) 250 mg, macrolide (spiramycin) 1300 mg) was “− (if cell length was not greater than 50 μm and cell number was within the range from 0 to 4 in each visual field, it was deemed as CGC negative and was marked with “−”)” and the CGC formation (Compound (I) 250 mg, macrolide (spiramycin) 1500 mg) was “+ (If cell length was more than 50 μm and cell number was more than 5 in each visual field, it was deemed as CGC positive and was marked with “+”)”. The CGC formation (Compound (I) 300 mg, aminoglycoside (kanamycin, gentamycin) 50 mg) was “− (if cell length was not greater than 50 μm and cell number was within the range from 0 to 4 in each visual field, it was deemed as CGC negative and was marked with “−”)”, the CGC formation (Compound (I) 300 mg, aminoglycoside (kanamycin, gentamycin) 100 mg) was “− (if cell length was not greater than 50 μm and cell number was within the range from 0 to 4 in each visual field, it was deemed as CGC negative and was marked with “−”)” and the CGC formation (Compound (I) 300 mg, aminoglycoside (kanamycin, gentamycin) 150 mg) was “− (if cell length was not greater than 50 μm and cell number was within the range from 0 to 4 in each visual field, it was deemed as CGC negative and was marked with “−”)”. For the same compound, the CGC formation (Compound (I) 300 mg, aminoglycoside (kanamycin, gentamycin) 200 mg) was “− (if cell length was not greater than 50 μm and cell number was within the range from 0 to 4 in each visual field, it was deemed as CGC negative and was marked with “−”)”, the CGC formation (Compound (I) 300 mg, aminoglycoside (kanamycin, gentamycin) 300 mg) was “− (if cell length was not greater than 50 μm and cell number was within the range from 0 to 4 in each visual field, it was deemed as CGC negative and was marked with “−”)” and the CGC formation (Compound (I) 300 mg, aminoglycoside (kanamycin, gentamycin) 400 mg) was “− (if cell length was not greater than 50 μm and cell number was within the range from 0 to 4 in each visual field, it was deemed as CGC negative and was marked with “−”)”. For the same compound, the CGC formation (Compound (I) 300 mg, aminoglycoside (kanamycin, gentamycin) 500 mg) was “− (if cell length was not greater than 50 μm and cell number was within the range from 0 to 4 in each visual field, it was deemed as CGC negative and was marked with “−”)”, the CGC formation (Compound (I) 300 mg, macrolide (spiramycin) 300 mg) was “− (if cell length was not greater than 50 μm and cell number was within the range from 0 to 4 in each visual field, it was deemed as CGC negative and was marked with “−”)” and the CGC formation (Compound (I) 300 mg, macrolide (spiramycin) 500 mg) was “− (if cell length was not greater than 50 μm and cell number was within the range from 0 to 4 in each visual field, it was deemed as CGC negative and was marked with “−”)”. For the same compound, the CGC formation (Compound (I) 300 mg, macrolide (spiramycin) 700 mg) was “− (if cell length was not greater than 50 μm and cell number was within the range from 0 to 4 in each visual field, it was deemed as CGC negative and was marked with “−”)”, the CGC formation (Compound (I) 300 mg, macrolide (spiramycin) 900 mg) was “− (if cell length was not greater than 50 μm and cell number was within the range from 0 to 4 in each visual field, it was deemed as CGC negative and was marked with “−”)” and the CGC formation (Compound (I) 300 mg, macrolide (spiramycin) 1100 mg) was “− (if cell length was not greater than 50 μm and cell number was within the range from 0 to 4 in each visual field, it was deemed as CGC negative and was marked with “−”)”. The CGC formation (Compound (I) 300 mg, macrolide (spiramycin) 1300 mg) was “− (if cell length was not greater than 50 μm and cell number was within the range from 0 to 4 in each visual field, it was deemed as CGC negative and was marked with “−”)” and the CGC formation (Compound (I) 300 mg, macrolide (spiramycin) 1500 mg) was “− (if cell length was not greater than 50 μm and cell number was within the range from 0 to 4 in each visual field, it was deemed as CGC negative and was marked with “−”)”.
